Data as given in ChEMBL document CHEMBL1201861, “Genomics of Drug Sensitity in Cancer screening data, Wellcome Trust Sanger Institute”.

Key:
Assay in all cases: cells
A204 = format: functional, cell-based, Homo sapiens; details: Homo sapiens, A204;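 also: growth inhibition of human A204 cells, read out with a cell viability assay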
Description: SANGER: Inhibition of human A204 cell growth in a cell viability assay.

MMAC-SF = format: functional, cell-based, Homo sapiens; details: Homo sapiens, MMAC-SF;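 also: growth inhibition of human MMAC-SF cells, read out with a cell viability assay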
Description: SANGER: Inhibition of human MMAC-SF cell growth in a cell viability assay.

COLO-741 = format: functional, cell-based, Homo sapiens; details: Homo sapiens, COLO-741
Description: SANGER: Inhibition of human COLO-741 cell growth in a cell viability assay.

MS-1 = format: functional, cell-based; details: Homo sapiens;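 also: growth inhibition of MS-1 cells, read out by cell viability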
Description: SANGER: Inhibition of human MS-1 cell growth in a cell viability assay.

UO-31 = format: functional, cell-based; details: Homo sapiens;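 also: cell viability assay measuring inhibition of cell growth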
Description: SANGER: Inhibition of human U031 cell growth in a cell viability assay.

SK-LU-1 = format: functional, cell-based, Homo sapiens; details: Homo sapiens, SK-LU-1;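 also: cell viability assay measuring growth inhibition of human SK-LU-1 cells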
Description: SANGER: Inhibition of human SK-LU-1 cell growth in a cell viability assay.

ACN = format: functional, cell-based, Homo sapiens; details: Homo sapiens, ACN;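 also: growth inhibition of the human ACN cell line, read out via cell viability testing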
Description: SANGER: Inhibition of human ACN cell growth in a cell viability assay.

COLO-684 = format: functional, cell-based; details: Homo sapiens
Description: SANGER: Inhibition of human COLO-684 cell growth in a cell viability assay.

CAL-62 = format: functional, cell-based, Homo sapiens; details: Homo sapiens, CAL-62;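 also: growth inhibition of CAL-62 cells, read out with a cell viability assay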
Description: SANGER: Inhibition of human CAL-62 cell growth in a cell viability assay.

JVM-3 = format: functional, cell-based; details: Homo sapiens;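 also: growth inhibition of human JVM-3 cells, read out with a cell viability assay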
Description: SANGER: Inhibition of human JVM-3 cell growth in a cell viability assay.

NH-12 = format: functional, cell-based, Homo sapiens; details: Homo sapiens, NH-12;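 also: growth inhibition of NH-12 cells, read out with a cell viability assay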
Description: SANGER: Inhibition of human NH-12 cell growth in a cell viability assay.

Hs-578T = format: functional, cell-based, Homo sapiens; details: Homo sapiens, Hs-578T
Description: SANGER: Inhibition of human Hs-578-T cell growth in a cell viability assay.

KP-N-YS = format: functional, cell-based; details: Homo sapiens;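 also: cell viability assay measuring inhibition of cell line growth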
Description: SANGER: Inhibition of human KP-N-YS cell growth in a cell viability assay.

SHP77 = format: functional, cell-based, Homo sapiens, SHP-77; details: Homo sapiens, SHP77;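 also: growth inhibition of human SHP-77 cells measured by a cell viability assay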
Description: SANGER: Inhibition of human SHP-77 cell growth in a cell viability assay.

RO82-W-1 = format: functional, cell-based, Homo sapiens; details: Homo sapiens, RO82-W-1;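 also: growth inhibition of human RO82-W-1 cells, measured with a cell viability assay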
Description: SANGER: Inhibition of human RO82-W-1 cell growth in a cell viability assay.

T47D = format: functional, cell-based, Homo sapiens; details: Homo sapiens, T47D;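 also: growth inhibition of human T47D cells, measured with a cell viability assay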
Description: SANGER: Inhibition of human T47D cell growth in a cell viability assay.

NCI-H69 = format: functional, cell-based; details: Homo sapiens;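 also: growth inhibition of the cell line, read out with a cell viability assay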
Description: SANGER: Inhibition of human NCI-H69 cell growth in a cell viability assay.

NB12 = format: functional, cell-based, Homo sapiens; details: Homo sapiens, NB12;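 also: growth inhibition of human NB12 cells, read out by a cell viability assay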
Description: SANGER: Inhibition of human NB12 cell growth in a cell viability assay.

697 = format: functional, cell-based; details: Homo sapiens
Description: SANGER: Inhibition of human 697 cell growth in a cell viability assay.

SW48 = format: functional, cell-based, Homo sapiens; details: Homo sapiens, SW48;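 also: growth inhibition of SW48 cells, read out with a cell viability assay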
Description: SANGER: Inhibition of human SW48 cell growth in a cell viability assay.

DU-145 = format: functional, cell-based, Homo sapiens; details: Homo sapiens, DU-145
Description: SANGER: Inhibition of human DU-145 cell growth in a cell viability assay.

MEL-HO = format: functional, cell-based, Homo sapiens; details: Homo sapiens, MEL-HO
Description: SANGER: Inhibition of human MEL-HO cell growth in a cell viability assay.

OE19 = format: functional, cell-based, Homo sapiens; details: Homo sapiens, OE19;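 also: growth inhibition of OE19 cells, measured through a cell viability read-out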
Description: SANGER: Inhibition of human OE19 cell growth in a cell viability assay.

NCI-H727 = format: functional, cell-based, Homo sapiens; details: Homo sapiens, NCI-H727;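 also: growth inhibition of human NCI-H727 cells, read out with a cell viability assay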
Description: SANGER: Inhibition of human NCI-H727 cell growth in a cell viability assay.

NCI-H1299 = format: functional, cell-based, Homo sapiens; details: Homo sapiens, NCI-H1299;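 also: growth inhibition of human NCI-H1299 cells, read out by a cell viability assay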
Description: SANGER: Inhibition of human NCI-H1299 cell growth in a cell viability assay.

P30-OHK = format: functional, cell-based; details: Homo sapiens;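 also: growth inhibition of the P30-OHK cell line, read out with a cell viability assay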
Description: SANGER: Inhibition of human P30-OHK cell growth in a cell viability assay.

MOLT-4 = format: functional, cell-based; details: Homo sapiens;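 also: growth inhibition of MOLT-4 cells, determined with a cell viability readout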
Description: SANGER: Inhibition of human MOLT-4 cell growth in a cell viability assay.

D-263MG = format: functional, cell-based, Homo sapiens; details: Homo sapiens, D-263MG
Description: SANGER: Inhibition of human D-263MG cell growth in a cell viability assay.

OCI-AML2 = format: functional, cell-based; details: Homo sapiens;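 also: growth inhibition of OCI-AML2 cells, read out with a cell viability assay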
Description: SANGER: Inhibition of human OCI-AML2 cell growth in a cell viability assay.

CGTH-W-1 = format: functional, cell-based, Homo sapiens; details: Homo sapiens, CGTH-W-1;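 also: growth inhibition of human CGTH-W-1 cells measured by cell viability assay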
Description: SANGER: Inhibition of human CGTH-W-1 cell growth in a cell viability assay.

SK-N-DZ = format: functional, cell-based, Homo sapiens; details: Homo sapiens, SK-N-DZ;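 also: growth inhibition of the cancer cell line, read out through a viability assay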
Description: SANGER: Inhibition of human SK-N-DZ cell growth in a cell viability assay.

HCC38 = format: functional, cell-based, Homo sapiens; details: Homo sapiens, HCC38;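 also: cell viability assay on the human HCC38 cell line, with IC50 marking the concentration that inhibits cell growth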
Description: SANGER: Inhibition of human HCC38 cell growth in a cell viability assay.

NCI-H1693 = format: functional, cell-based, Homo sapiens; details: Homo sapiens, NCI-H1693;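 also: growth inhibition of the human cell line, read out with a cell viability assay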
Description: SANGER: Inhibition of human NCI-H1693 cell growth in a cell viability assay.

CP66-MEL = format: functional, cell-based, Homo sapiens; details: Homo sapiens, CP66-MEL;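 also: growth inhibition of CP66-MEL cells determined in a cell viability assay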
Description: SANGER: Inhibition of human CP66-MEL cell growth in a cell viability assay.

UMUC3 = format: functional, cell-based, Homo sapiens; details: Homo sapiens, UMUC3;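 also: growth inhibition of human UM-UC-3 cells, read out with a cell viability assay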
Description: SANGER: Inhibition of human UM-UC-3 cell growth in a cell viability assay.

EKVX = format: functional, cell-based, Homo sapiens; details: Homo sapiens, EKVX;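 also: growth inhibition of human EKVX cells, read out with a cell viability assay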
Description: SANGER: Inhibition of human EKVX cell growth in a cell viability assay.

HD-MY-Z = format: functional, cell-based, Homo sapiens; details: Homo sapiens, HD-MY-Z;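 also: growth inhibition of HD-MY-Z cells, read out with a cell viability assay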
Description: SANGER: Inhibition of human HD-MY-Z cell growth in a cell viability assay.

Mo = format: functional, cell-based; details: Homo sapiens
Description: SANGER: Inhibition of human Mo-T cell growth in a cell viability assay.

DEL = format: functional, cell-based; details: Homo sapiens;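 also: growth inhibition of the human DEL cell line, read out with a cell viability assay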
Description: SANGER: Inhibition of human DEL cell growth in a cell viability assay.

DOK = format: functional, cell-based, Homo sapiens; details: Homo sapiens, DOK;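 also: cell viability assay read-out, values reflect inhibition of cell growth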
Description: SANGER: Inhibition of human DOK cell growth in a cell viability assay.

BPH-1 = format: functional, cell-based, Homo sapiens; details: Homo sapiens, BPH-1;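 also: cell viability assay measuring growth inhibition of human BPH-1 cells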
Description: SANGER: Inhibition of human BPH-1 cell growth in a cell viability assay.

D-392MG = format: functional, cell-based, Homo sapiens; details: Homo sapiens, D-392MG
NCI-H446 = format: functional, cell-based; details: Homo sapiens;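 also: growth inhibition of NCI-H446 cells determined by a cell viability assay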
Description: SANGER: Inhibition of human NCI-H446 cell growth in a cell viability assay.

HO-1-N-1 = format: functional, cell-based, Homo sapiens; details: Homo sapiens, HO-1-N-1;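 also: growth inhibition of human HO-1-N-1 cells, read out with a cell viability assay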
Description: SANGER: Inhibition of human HO-1-N-1 cell growth in a cell viability assay.

MN-60 = format: functional, cell-based; details: Homo sapiens;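 also: growth inhibition of the MN-60 cell line, determined with a cell viability assay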
Description: SANGER: Inhibition of human MN-60 cell growth in a cell viability assay.

CAL-33 = format: functional, cell-based, Homo sapiens; details: Homo sapiens, CAL-33;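 also: growth inhibition of CAL-33 cells, read out with a cell viability assay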
Description: SANGER: Inhibition of human CAL-33 cell growth in a cell viability assay.

SW872 = format: functional, cell-based, Homo sapiens; details: Homo sapiens, SW872;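 also: growth inhibition of SW872 cells, read out by a viability assay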
Description: SANGER: Inhibition of human SW872 cell growth in a cell viability assay.

HCE-T = format: functional, cell-based, Homo sapiens; details: Homo sapiens, HCE-T;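 also: cell viability assay read-out, reporting inhibition of HCE-T cell growth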
Description: SANGER: Inhibition of human HCE-T cell growth in a cell viability assay.

GI-1 = format: functional, cell-based, Homo sapiens; details: Homo sapiens, GI-1
Description: SANGER: Inhibition of human GI-1 cell growth in a cell viability assay.

BCPAP = format: functional, cell-based, Homo sapiens; details: Homo sapiens, BCPAP;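 also: growth inhibition of BCPAP cells, read out in a cell viability assay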
Description: SANGER: Inhibition of human BCPAP cell growth in a cell viability assay.

ESS-1 = format: functional, cell-based, Homo sapiens; details: Homo sapiens, ESS-1;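 also: growth inhibition of human ESS-1 cells, read out by a cell viability assay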
Description: SANGER: Inhibition of human ESS-1 cell growth in a cell viability assay.

HC-1 = format: functional, cell-based; details: Homo sapiens;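 also: growth inhibition of HC-1 cells measured by a cell viability assay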
Description: SANGER: Inhibition of human HC-1 cell growth in a cell viability assay.

EC-GI-10 = format: functional, cell-based, Homo sapiens; details: Homo sapiens, EC-GI-10
Description: SANGER: Inhibition of human EC-GI-10 cell growth in a cell viability assay.

CCOc1nc(NC(=O)Cc2cc(OC)ccc2OC)cc(N)c1C#N
IC50 (A204): > 10000 nM | IC50 (MMAC-SF): > 10000 nM | IC50 (COLO-741): > 10000 nM | IC50 (MS-1): > 10000 nM | IC50 (UO-31): > 10000 nM | IC50 (SK-LU-1): > 10000 nM | IC50 (ACN): > 10000 nM | IC50 (COLO-684): > 10000 nM | IC50 (CAL-62): > 10000 nM | IC50 (JVM-3): > 10000 nM | IC50 (NH-12): > 10000 nM | IC50 (Hs-578T): > 10000 nM | IC50 (KP-N-YS): > 10000 nM | IC50 (SHP77): > 10000 nM | IC50 (RO82-W-1): > 10000 nM | IC50 (T47D): > 10000 nM | IC50 (NCI-H69): > 10000 nM | IC50 (NB12): > 10000 nM | IC50 697: > 10000 nM | IC50 (SW48): > 10000 nM | IC50 (DU-145): > 10000 nM | IC50 (MEL-HO): > 10000 nM | IC50 (OE19): > 10000 nM | IC50 (NCI-H727): > 10000 nM | IC50 (NCI-H1299): > 10000 nM | IC50 (P30-OHK): > 10000 nM | IC50 (MOLT-4): > 10000 nM | IC50 (D-263MG): > 10000 nM | IC50 (OCI-AML2): > 10000 nM | IC50 (CGTH-W-1): > 10000 nM | IC50 (SK-N-DZ): > 10000 nM | IC50 (HCC38): > 10000 nM | IC50 (NCI-H1693): > 10000 nM | IC50 (CP66-MEL): > 10000 nM | IC50 (UMUC3): > 10000 nM | IC50 (EKVX): > 10000 nM | IC50 (HD-MY-Z): > 10000 nM | IC50 (Mo): > 10000 nM | IC50 (DEL): > 10000 nM | IC50 (DOK): > 10000 nM | IC50 (BPH-1): > 10000 nM | IC50 (D-392MG): > 10000 nM | IC50 (NCI-H446): > 10000 nM | IC50 (HO-1-N-1): > 10000 nM | IC50 (MN-60): > 10000 nM | IC50 (CAL-33): > 10000 nM | IC50 (SW872): > 10000 nM | IC50 (HCE-T): > 10000 nM | IC50 (GI-1): > 10000 nM | IC50 (BCPAP): > 10000 nM | IC50 (ESS-1): > 10000 nM

Nc1ccn([C@@H]2O[C@H](CO)[C@@H](O)[C@@H]2O)c(=O)n1 [CYTARABINE]
IC50 (A204): 311 nM | IC50 (MMAC-SF): > 2000 nM | IC50 (COLO-741): > 2000 nM | IC50 (MS-1): > 2000 nM | IC50 (UO-31): 1250 nM | IC50 (HC-1): 1080 nM | IC50 (SK-LU-1): 1310 nM | IC50 (ACN): > 2000 nM | IC50 (COLO-684): > 2000 nM | IC50 (CAL-62): 710 nM | IC50 (JVM-3): 1450 nM | IC50 (EC-GI-10): 557 nM | IC50 (NH-12): 1160 nM | IC50 (Hs-578T): 839 nM | IC50 (KP-N-YS): > 2000 nM | IC50 (SHP77): > 2000 nM | IC50 (RO82-W-1): > 2000 nM | IC50 (T47D): > 2000 nM | IC50 (NCI-H69): > 2000 nM | IC50 (NB12): > 2000 nM | IC50 697: 10.6 nM | IC50 (SW48): 366 nM | IC50 (DU-145): > 2000 nM | IC50 (MEL-HO): > 2000 nM | IC50 (OE19): > 2000 nM | IC50 (NCI-H727): > 2000 nM | IC50 (NCI-H1299): 672 nM | IC50 (P30-OHK): 56.5 nM | IC50 (MOLT-4): 89.7 nM | IC50 (D-263MG): 1170 nM | IC50 (OCI-AML2): 545 nM | IC50 (CGTH-W-1): 182 nM | IC50 (SK-N-DZ): 1070 nM | IC50 (HCC38): 1880 nM | IC50 (NCI-H1693): > 2000 nM | IC50 (CP66-MEL): > 2000 nM | IC50 (UMUC3): 342 nM | IC50 (EKVX): > 2000 nM | IC50 (HD-MY-Z): 745 nM | IC50 (Mo): > 2000 nM | IC50 (DEL): 875 nM | IC50 (DOK): 904 nM | IC50 (BPH-1): > 2000 nM | IC50 (NCI-H446): > 2000 nM | IC50 (HO-1-N-1): 691 nM | IC50 (MN-60): 935 nM | IC50 (CAL-33): 1180 nM | IC50 (SW872): > 2000 nM | IC50 (HCE-T): > 2000 nM | IC50 (GI-1): 339 nM | IC50 (BCPAP): 501 nM | IC50 (ESS-1): > 2000 nM
